Literature values in patent US20260071096A1, “BONDED ABRASIVE ARTICLES AND METHODS OF MANUFACTURE” (3M INNOVATIVE PROPERTIES COMPANY, priority 2020, published 2026).

Conditions: species and route not given

In the case of `c1ccc2ccccc2c1` [Naphthalene, naphthalene], the “LD50 (mean lethal dose)” value is given as 490 mg/kg.
